For 13 molecules, EC50 and CC50 results are on record in US11541055B2, “Inhibitors of human immunodeficiency virus replication” (ViiV Healthcare UK (No. 5) LIMITED, priority 2018, dated 2023).

The test system of data set [1] is recombinant NL4-3 virus (Renilla luciferase) in MT-2 cells. Kind of data set: HIV cell culture assay (antiviral activity, luciferase readout). It counts as cell-based. As to conditions: Renilla, NL43. The protocol:
HIV cell culture assay—MT-2 cells, 293T cells and the proviral DNA clone of NL4-3 virus were obtained from the NIH AIDS Research and Reference Reagent Program. MT-2 cells were propagated in RPMI 1640 media supplemented with 10% heat inactivated fetal bovine serum (FBS), […]. The 293T cells were propagated in DMEM media supplemented with 10% heat inactivated FBS, […] penicillin G and […] streptomycin. A recombinant NL40.3 proviral clone, in which a section of the nef gene was replaced with the Renilla luciferase gene, was used to make the reference virus used in these studies. The recombinant virus was prepared through transfection of the recombinant NL4-3 proviral clone into 293T cells using Transit-293 Transfection Reagent from Minis Bio LLC (Madison, Wis.). Supernatent was harvested after 2-3 days and the amount of virus present was titered in MT-2 cells using luciferase enzyme activity as a marker by measuring luciferase enzyme activity. Luciferase was quantitated using the EnduRen Live Cell Substrate from Promega (Madison, Wis.). Antiviral activities of compounds toward the recombinant virus were quantified by measuring luciferase activity in MT-2 cells infected for 4-5 days with the recombinant virus in the presence of serial dilutions of the compound.
The 50% effective concentration (EC50) was calculated by using the exponential form of the median effect equation where (Fa)=1/[1+(ED50/drug conc.)m] (Johnson V A, Byington R T. Infectivity Assay. In Techniques in HIV Research. ed. Aldovini A, Walker B D. 71-76. New York: Stockton Press. 1990). The 50% inhibitory concentration (EC50) was calculated by using the exponential form of the median effect equation where percent inhibition=1/[1+(EC50/drug concentration)m], where m is a parameter that reflects the slope of the concentration-response curve.

Data set [2] can be described thus: Compound cytotoxicity, XTT-based colorimetric assay. It counts as cell-based. As to conditions: human; uninfected MT2 cells, day 4, XTT. Here is the method:
Compound cytotoxicity and the corresponding CC50 values were determined using the same protocol as described in the antiviral assay except that uninfected cells were used. Cytotoxicity was assessed on day 4 in uninfected MT2 cells by using a XTT (2,3-bis[2-Methoxy-4-nitro-5-sulfophenyl]-2H-tetrazolium-5-carboxyanilide inner salt)-based colorimetric assay (Sigma-Aldrich, St Louis, Mo.).

In the case of `Cc1nccc(-c2ccc3c(=O)n(-c4ccc(Cl)c5c(NS(C)(=O)=O)nn(CC(F)F)c45)c([C@H](Cc4cc(F)cc(F)c4)NC(=O)Cn4nc(C(F)F)c5c4C(F)(F)[C@@H]4C[C@H]54)nc3c2)n1` (atropisomer, axis not shown) [Example 121, N-[(1S)-1-{3-[4-chloro-1-(2,2-difluoroethyl)-3-methanesulfonamido-1H-indazol-7-yl]-7-(2-methylpyrimidin-4-yl)-4-oxo-3,4-dihydroquinazolin-2-yl}-2-(3,5-difluorophenyl)ethyl]-2-[(2S,4R)-9-(difluoromethyl)-5,5-difluoro-7,8-diazatricyclo[4.3.0.0^2,^4]nona-1(6),8-dien-7-yl]acetamide], in data set [1], the concentration giving a half-maximal response (EC50) came to 67 pM. In data set [2], this molecule returned a CC50 at 4 days above 500000 pM.
In the same order, the values of `Cc1ccc(F)c(-c2ccc3c(=O)n(-c4ccc(Cl)c5c(NS(C)(=O)=O)nn(CC(F)F)c45)c([C@H](Cc4cc(F)cc(F)c4)NC(=O)Cn4nc(C(F)F)c5c4C(F)(F)[C@@H]4C[C@H]54)nc3c2)n1` (atropisomer, axis not shown) [Example 122] are 80 pM and above 500000 pM.
For the molecule `Cc1ncc(-c2ccc3c(=O)n(-c4ccc(Cl)c5c(NS(C)(=O)=O)nn(CC(F)F)c45)c([C@H](Cc4cc(F)cc(F)c4)NC(=O)Cn4nc(C(F)F)c5c4C(F)(F)[C@@H]4C[C@H]54)nc3c2)s1` (atropisomer, axis not shown) [Example 123, N-[(1S)-1-{3-[4-chloro-1-(2,2-difluoroethyl)-3-methanesulfonamido-1H-indazol-7-yl]-7-(2-methyl-1,3-thiazol-5-yl)-4-oxo-3,4-dihydroquinazolin-2-yl}-2-(3,5-difluorophenyl)ethyl]-2-[(2S,4R)-9-(difluoromethyl)-5,5-difluoro-7,8-diazatricyclo[4.3.0.0^2,^4]nona-1(6),8-dien-7-yl]acetamide], in data set [1], the EC50 was found to be 87 pM. This molecule also gave a CC50 at 4 days in data set [2] above 500000 pM.
The corresponding values for `COc1cnc(-c2ccc3c(=O)n(-c4ccc(Cl)c5c(NS(C)(=O)=O)nn(CC(F)F)c45)c([C@H](Cc4cc(F)cc(F)c4)NC(=O)Cn4nc(C(F)F)c5c4C(F)(F)[C@@H]4C[C@H]54)nc3c2)nc1` (atropisomer, axis not shown) [Example 124, N-[(1S)-1-{3-[4-chloro-1-(2,2-difluoroethyl)-3-methanesulfonamido-1H-indazol-7-yl]-7-(5-methoxypyrimidin-2-yl)-4-oxo-3,4-dihydroquinazolin-2-yl}-2-(3,5-difluorophenyl)ethyl]-2-[(2S,4R)-9-(difluoromethyl)-5,5-difluoro-7,8-diazatricyclo[4.3.0.0^2,^4]nona-1(6),8-dien-7-yl]acetamide] are 92 pM and above 500000 pM.
The corresponding values for `COc1ncc(-c2ccc3c(=O)n(-c4ccc(Cl)c5c(NS(C)(=O)=O)nn(CC(F)F)c45)c([C@H](Cc4cc(F)cc(F)c4)NC(=O)Cn4nc(C(F)F)c5c4C(F)(F)[C@@H]4C[C@H]54)nc3c2)cn1` (atropisomer, axis not shown) [Example 125, N-[(1S)-1-{3-[4-chloro-1-(2,2-difluoroethyl)-3-methanesulfonamido-1H-indazol-7-yl]-7-(2-methoxypyrimidin-5-yl)-4-oxo-3,4-dihydroquinazolin-2-yl}-2-(3,5-difluorophenyl)ethyl]-2-[(2S,4R)-9-(difluoromethyl)-5,5-difluoro-7,8-diazatricyclo[4.3.0.0^2,^4]nona-1(6),8-dien-7-yl]acetamide] are 60 pM and above 500000 pM.
In the same order, the values of `CCc1cc(C)nc(-c2ccc3c(=O)n(-c4ccc(Cl)c5c(NS(C)(=O)=O)nn(CC(F)F)c45)c([C@H](Cc4cc(F)cc(F)c4)NC(=O)Cn4nc(C(F)F)c5c4C(F)(F)[C@@H]4C[C@H]54)nc3c2)n1` (atropisomer, axis not shown) [Example 126, N-[(1S)-1-{3-[4-chloro-1-(2,2-difluoroethyl)-3-methanesulfonamido-1H-indazol-7-yl]-7-(4-ethy1-6-methylpyrimidin-2-y1)-4-oxo-3,4-dihydroquinazolin-2-yl}-2-(3,5-difluorophenyl)ethyl]-2-[(2S,4R)-9-(difluoromethyl)-5,5-difluoro-7,8-diazatricyclo[4.3.0.0^2,^4]nona-1(6),8-dien-7-yl]acetamide] are 120 pM and above 500000 pM.
Turning to `CC(C)(C)S(=O)(=O)c1cccc(-c2ccc3c(=O)n(-c4ccc(Cl)c5c(NS(C)(=O)=O)nn(CC(F)F)c45)c([C@H](Cc4cc(F)cc(F)c4)NC(=O)Cn4nc(C(F)F)c5c4C(F)(F)[C@@H]4C[C@H]54)nc3c2)c1` (atropisomer, axis not shown) [Example 127], the EC50 in data set [1] worked out at 140 pM. The molecule further returned a CC50 at 4 days in data set [2] above 500000 pM.
The corresponding values for `CS(=O)(=O)Nc1nn(CC(F)F)c2c(-n3c([C@H](Cc4cc(F)cc(F)c4)NC(=O)Cn4nc(C(F)F)c5c4C(F)(F)[C@@H]4C[C@H]54)nc4cc(-c5nccc(C(F)(F)F)n5)ccc4c3=O)ccc(Cl)c12` (atropisomer, axis not shown) [Example 128, N-[(1S)-1-{3-[4-chloro-1-(2,2-difluoroethyl)-3-methanesulfonamido-1H-indazol-7-yl]-4-oxo-7-[4-(trifluoromethyl)pyrimidin-2-yl]-3,4-dihydroquinazolin-2-yl}-2-(3,5-difluorophenyl)ethyl]-2-[(2S,4R)-9-(difluoromethyl)-5,5-difluoro-7,8-diazatricyclo[4.3.0.0^2,^4]nona-1(6),8-dien-7-yl]acetamide] are 79 pM and above 500000 pM.
The corresponding values for `COc1ccc(-c2ccc3c(=O)n(-c4ccc(Cl)c5c(NS(C)(=O)=O)nn(CC(F)F)c45)c([C@H](Cc4cc(F)cc(F)c4)NC(=O)Cn4nc(C(F)F)c5c4C(F)(F)[C@@H]4C[C@H]54)nc3c2)nn1` (atropisomer, axis not shown) [Example 129, N-[(1S)-1-{3-[4-chloro-1-(2,2-difluoroethyl)-3-methanesulfonamido-1H-indazol-7-yl]-7-(6-methoxypyridazin-3-yl)-4-oxo-3,4-dihydroquinazolin-2-yl}-2-(3,5-difluorophenyl)ethyl]-2-[(2S,4R)-9-(difluoromethyl)-5,5-difluoro-7,8-diazatricyclo[4.3.0.0^2,^4]nona-1(6),8-dien-7-yl]acetamide] are 54 pM and above 500000 pM.
In the same order, the values of `CC(C)(C)S(=O)(=O)c1ccccc1-c1ccc2c(=O)n(-c3ccc(Cl)c4c(NS(C)(=O)=O)nn(CC(F)F)c34)c([C@H](Cc3cc(F)cc(F)c3)NC(=O)Cn3nc(C(F)F)c4c3C(F)(F)[C@@H]3C[C@H]43)nc2c1` (atropisomer, axis not shown) [Example 130] are 130 pM and above 500000 pM.
With `Cc1cc(-c2ccc3c(=O)n(-c4ccc(Cl)c5c(NS(C)(=O)=O)nn(CC(F)F)c45)c([C@H](Cc4cc(F)cc(F)c4)NC(=O)Cn4nc(C(F)F)c5c4C(F)(F)[C@@H]4C[C@H]54)nc3c2)nc(C)n1` (atropisomer, axis not shown) [Example 131, N-[(1S)-1-{3-[4-chloro-1-(2,2-difluoroethyl)-3-methanesulfonamido-1H-indazol-7-yl]-7-(2,6-dimethylpyrimidin-4-y1)-4-oxo-3,4-dihydroquinazolin-2-y1}-2-(3,5-difluorophenyl)ethyl]-2-[(2S,4R)-9-(difluoromethyl)-5,5-difluoro-7,8-diazatricyclo[4.3.0.0^2,^4]nona-1(6),8-dien-7-yl]acetamide], the EC50 in data set [1] was determined as 38 pM. The molecule also returned a CC50 at 4 days in data set [2] above 500000 pM.
In the same order, the values of `CS(=O)(=O)Nc1nn(CC(F)F)c2c(-n3c([C@H](Cc4cc(F)cc(F)c4)NC(=O)Cn4nc(C(F)F)c5c4C(F)(F)[C@@H]4C[C@H]54)nc4cc(-c5nccc(C(F)F)n5)ccc4c3=O)ccc(Cl)c12` (atropisomer, axis not shown) [Example 132] are 60 pM and above 500000 pM.
The corresponding values for `Cc1nnc(-c2ccc3c(=O)n(-c4ccc(Cl)c5c(NS(C)(=O)=O)nn(CC(F)F)c45)c([C@H](Cc4cc(F)cc(F)c4)NC(=O)Cn4nc(C(F)F)c5c4C(F)(F)[C@@H]4C[C@H]54)nc3c2)nc1C` (atropisomer, axis not shown) [Example 133, N-[(1S)-1-{3-[4-chloro-1-(2,2-difluoroethyl)-3-methanesulfonamido-1H-indazol-7-yl]-7-(5,6-dimethyl-1,2,4-triazin-3-yl)-4-oxo-3,4-dihydroquinazolin-2-yl}-2-(3,5-difluorophenyl)ethyl]-2-[(2S,4R)-9-(difluoromethyl)-5,5-difluoro-7,8-diazatricyclo[4.3.0.0^2,^4]nona-1(6),8-dien-7-yl]acetamide] are 40 pM and above 500000 pM.
